Data as given in US9649313B2, “Use of ITK inhibitors for the treatment of cancer” (The University of North Carolina at Chapel Hill, priority 2012, dated 2017).

How the values were obtained:
[1] = test system: PMWK (ITKLO) melanoma cell line; test: proliferation assay (cell counts); assay type: cell-based, Human; conditions: inhibitor as high as 150 nM
Excerpt: (§1) FIG. 4A-4E. Effects of ITK knockdown on proliferation and motility of melanoma cells. FIG. 4A) Western of lysates of VMM 39 containing each of the four shRNA constructs using rabbit monoclonal anti ITK (Y401). FIG. 4B) The four shRNA lentiviral constructs were used to transduce three melanoma cell lines, PMWK (ITKLO), VMM 39 (ITKHI), and RPMI 8322 (ITKHI). 50,000 cells were placed into each well of a 6 well plate, which was then counted 3, 5, and 6, or 7 days after plating to assess the proliferation rates of the different cell lines. FIG. 4C) Single Cell Motility assays were performed on three different melanoma cell lines, PMWK, VMM 39, and RPMI 8322. Each melanoma cell line was transduced with the four shRNA lentiviral constructs producing a total of 12 cell lines. 10,000 cells were plated on fibronectin coated glass bottom dishes. Pictures were taken once every 40 minutes for 16 hours. FIG. 4D) Cell cycle analysis of PMWK, VMM 39, and RPMI 8322 cells that have been transduced with various shRNAs. Cells were harvested after 3 hours of incubation with 5-ethynyl-2′-deoxyuridine (EdU). EdU incorporation and DNA content with FxCycle Violet were analyzed using flow cytometry. Illustrated in this panel are the percentages of cells in G0/G1 (low DNA and EdU content), S (high EdU and low-to-medium DNA content), and G2/M (Low EdU and high DNA content). FIG. 4E) Single-cell motility analysis of PMWK, VMM 39, and RPMI 8322 that have been transduced with various shRNAs. At least 50 cells were tracked for each cell line and the average motility rate was determined. […]
(§2) FIG. 5A-5C. […] Cells were trypsinized and counted using the Invitrogen Countess. […] The cells were counted with the Invitrogen Countess at 3, 5, and 6 or 7 days after plating to assess the proliferation rates of the different cell lines in the presence of BI 10N. […] Following 3 days of BI 10N treatment, the cells were incubated with EdU for 3 hours and were subsequently assessed for 5-ethynyl-2′-deoxyuridine (EdU) incorporation rate and DNA content with FxCycle Violet. […]

[2] = test system: RPMI 8322 (ITKHI) melanoma cell line; test: proliferation assay (cell counts); assay type: cell-based, Human; conditions: 50 nM
Excerpt: as §1, §2

[3] = test system: VMM 39 (ITKHI) melanoma cell line; test: proliferation assay (cell counts); assay type: cell-based, Human; conditions: 50 nM
Excerpt: as §1, §2

[4] = test system: A375 (ITKINT) melanoma cell line; test: single cell motility assay; assay type: cell-based, Human
Method: (§3) FIG. 5A-5C. Effects of BI 10N inhibitor on proliferation and motility of melanoma cells. FIG. 5A) Cell motility assays were performed as described in FIG. 4A-4E; however, the inhibitor BI 10N was added to the media to decrease ITK kinase activity in parental cell lines instead of using the shRNA ITK knockdown cell lines. BI 10N was added to the media 24 hours prior to the start of the motility assay and the VivaView camera system was used to image cellular motility of the melanoma cells as described previously. FIG. 5B) The proliferation assays were completed as described in FIG. 4A-4E, substituting the BI 10N compound for the shRNA. Cells were trypsinized and counted using the Invitrogen Countess. Fifty thousand cells were placed into each well of a 6 well plate and BI 10N was added to the indicated concentrations. The cells were counted with the Invitrogen Countess at 3, 5, and 6 or 7 days after plating to assess the proliferation rates of the different cell lines in the presence of BI 10N. FIG. 5C) Both ITKHI (RPMI 8322) and ITKLO (PMWK) melanoma cell lines were grown in the presence of BI 10N (10-200 nM) in soft agar. In 24-well cell culture plates 2,500 cells per well were added to a 1.4% agarose solution. The agarose and cell solution was then poured on top of a solidified base agar. The cells were incubated at 37° C. for three to four weeks to ensure adequate growth before analysis. FIG. 5D) Cell cycle analysis of PMWK, VMM 39, and RPMI 8322 cells that have been treated with increasing concentrations of BI 10N. Following 3 days of BI 10N treatment, the cells were incubated with EdU for 3 hours and were subsequently assessed for 5-ethynyl-2′-deoxyuridine (EdU) incorporation rate and DNA content with FxCycle Violet. Shown in this panel are the percentages of cells in G0/G1 (low DNA and EdU content), S (high EdU and low-to-medium DNA content), and G2/M (Low EdU and high DNA content)
(§4) Single cell tracking was performed as described (Williams et al., 2012 Circ Res 111(1):56-65). Briefly melanoma cells were plated on 5 μg/cm2 collagen coated MatTek dishes (MatTek Corp., Ashland, Mass. part #P35G-1.5-10-C) and allowed to attach for 24 hours in the presence of either DMSO (1:1000) or BI 10N in DMSO. Cells were monitored for 16 hours using the Olympus VivaView live cell imaging microscope system. Images were taken at a magnification of 10× and were converted to stacks using Image J software. Single-cells were tracked using Image J manual tracking software and velocities were obtained.

[5] = test system: SKMEL 103 (ITKINT) melanoma cell line; test: single cell motility assay; assay type: cell-based, Human
Method: as §3, §4

[6] = test system: SKMEL 131 (ITKLO) melanoma cell line; test: single cell motility assay; assay type: cell-based, Human
Method: as §3, §4

[7] = test system: SKMEL 153 (ITKHI) melanoma cell line; test: single cell motility assay; assay type: cell-based, Human; conditions: 10-25 nM
Method: as §3, §4

[8] = molecular target: T1, phosphorylated (active) form of ITK in RPMI 8322 cells (Homo sapiens, UniProt Q08881); test: two-dimensional electrophoresis and western blot of ITK isoforms; assay type: cell-based; conditions: RPMI 8322 cells treated for 3 days
T1 construct: endogenous in cells; host or cells: RPMI 8322 human melanoma cells
Excerpt: Therefore, alternatively, we performed two-dimensional electrophoresis on whole cell lysates obtained from RPMI 8322 cells that had been treated with phosphatase or different concentrations of BI 10N for 3 days prior to harvest followed by western blot analysis using the ITK antibody. In untreated RPMI 8322 cells, two charge isoforms that migrated with the appropriate weight for ITK were identified by immunoblot analysis. […] These observations indicate that the formation of the phosphorylated (active) form of ITK is inhibited in the presence of ≧25 nM of BI 10N (data not shown).

T1 sequence (Q08881 whole entry, canonical isoform): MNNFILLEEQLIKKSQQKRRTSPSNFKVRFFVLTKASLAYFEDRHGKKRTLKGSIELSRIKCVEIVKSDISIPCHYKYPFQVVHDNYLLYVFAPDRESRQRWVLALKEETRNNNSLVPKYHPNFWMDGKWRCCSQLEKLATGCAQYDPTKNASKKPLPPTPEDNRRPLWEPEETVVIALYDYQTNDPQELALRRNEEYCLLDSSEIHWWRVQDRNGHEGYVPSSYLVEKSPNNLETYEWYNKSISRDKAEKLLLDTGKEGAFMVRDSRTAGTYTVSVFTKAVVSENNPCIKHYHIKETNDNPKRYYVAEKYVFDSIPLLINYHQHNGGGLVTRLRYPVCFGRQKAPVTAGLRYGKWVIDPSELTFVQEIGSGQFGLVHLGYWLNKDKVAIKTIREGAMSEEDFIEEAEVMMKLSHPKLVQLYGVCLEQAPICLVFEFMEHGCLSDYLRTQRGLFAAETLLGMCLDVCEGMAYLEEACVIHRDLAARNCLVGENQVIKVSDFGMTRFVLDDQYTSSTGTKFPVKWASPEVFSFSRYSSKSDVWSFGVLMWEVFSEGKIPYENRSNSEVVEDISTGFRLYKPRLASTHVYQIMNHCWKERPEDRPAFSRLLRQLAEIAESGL

CC(C)C(C)CNCc1ccc2c(c1)[nH]/c(=N\C(=O)c1ccc(C3=CN=NC3)s1)n2CC(C)(C)O (centres unmarked) [BI 10N]
effect on doubling time [1]: did not increase their doubling time
increase in doubling time [2]: about 50%
increase in doubling time [3]: about 50%
concentration required for smaller changes in migration [4]: ≥ 150 nM
effect on migration ([4]; 10-25 nM): unaffected
concentration required for smaller changes in migration [5]: ≥ 150 nM
effect on migration ([5]; 10-25 nM): unaffected
concentration required for smaller changes in migration [6]: ≥ 150 nM
effect on migration ([6]; 10-25 nM): do not decrease
decrease in migration [7]: about 50%
concentration at which formation of the phosphorylated (active) form of ITK is inhibited [8]: ≥ 25 nM
